Results taken from PubChem BioAssay (NCI).
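Interpolation was linear, between the two tested concentrations surrounding the appropriate level; five concentrations were tested over 48 hours in 96-well plates. The concentration for full growth arrest is given as TGI.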

Legend:
Assay in all cases: inhibition of tumour cell growth, NCI panel, 48 h
HCT-116 colon = tested on: HCT-116 colon
SK-MEL-28 melanoma = tested on: SK-MEL-28 melanoma
HOP-18 NSCLC = tested on: HOP-18 NSCLC
HOP-92 NSCLC = tested on: HOP-92 NSCLC
IGROV1 ovarian = tested on: IGROV1 ovarian
CAKI-1 renal = tested on: CAKI-1 renal
OVCAR-8 ovarian = tested on: OVCAR-8 ovarian
SK-OV-3 ovarian = tested on: SK-OV-3 ovarian
SF-539 CNS = tested on: SF-539 CNS
RXF-631 renal = tested on: RXF-631 renal
EKVX NSCLC = tested on: EKVX NSCLC
UACC-257 melanoma = tested on: UACC-257 melanoma
HT29 colon = tested on: HT29 colon
NCI-H23 lung = tested on: NCI-H23 lung
LOX IMVI melanoma = tested on: LOX IMVI melanoma
SN12C renal = tested on: SN12C renal
HCT-15 colon = tested on: HCT-15 colon
UACC-62 melanoma = tested on: UACC-62 melanoma
SF-268 CNS = tested on: SF-268 CNS
M19-MEL melanoma = tested on: M19-MEL melanoma
UO-31 renal = tested on: UO-31 renal
M14 melanoma = tested on: M14 melanoma
OVCAR-4 ovarian = tested on: OVCAR-4 ovarian
786-0 renal = tested on: 786-0 renal
XF 498 CNS = tested on: XF 498 CNS
K-562 leukemia = tested on: K-562 leukemia
RXF 393 renal = tested on: RXF 393 renal
SNB-78 CNS = tested on: SNB-78 CNS
DMS 114 small cell lung = tested on: DMS 114 small cell lung
SK-MEL-5 melanoma = tested on: SK-MEL-5 melanoma
RPMI-8226 leukemia = tested on: RPMI-8226 leukemia
SW-620 colon = tested on: SW-620 colon
HCC-2998 colon = tested on: HCC-2998 colon
SF-295 CNS = tested on: SF-295 CNS
SK-MEL-2 melanoma = tested on: SK-MEL-2 melanoma
U251 CNS = tested on: U251 CNS
OVCAR-5 ovarian = tested on: OVCAR-5 ovarian
COLO 205 colon = tested on: COLO 205 colon
TK-10 renal = tested on: TK-10 renal
MALME-3M melanoma = tested on: MALME-3M melanoma
OVCAR-3 ovarian = tested on: OVCAR-3 ovarian
HL-60(TB) leukemia = tested on: HL-60(TB) leukemia
SNB-19 CNS = tested on: SNB-19 CNS
MOLT-4 leukemia = tested on: MOLT-4 leukemia
DLD-1 colon = tested on: DLD-1 colon
NCI-H522 lung = tested on: NCI-H522 lung
KM12 colon = tested on: KM12 colon
ACHN renal = tested on: ACHN renal
HOP-62 NSCLC = tested on: HOP-62 NSCLC
NCI-H460 lung = tested on: NCI-H460 lung
NCI-H226 lung = tested on: NCI-H226 lung
LXFL 529 NSCLC = tested on: LXFL 529 NSCLC
A549 NSCLC = tested on: A549 NSCLC
CCRF-CEM leukemia = tested on: CCRF-CEM leukemia

Measured: TGI

CCOC(=O)C(=O)Nc1cccc(Cl)c1C
> 100 µM: all assays above
